Molecular target: T1, human GnRH receptor (Homo sapiens, UniProt P30968)
T1 sequence (P30968 1-328): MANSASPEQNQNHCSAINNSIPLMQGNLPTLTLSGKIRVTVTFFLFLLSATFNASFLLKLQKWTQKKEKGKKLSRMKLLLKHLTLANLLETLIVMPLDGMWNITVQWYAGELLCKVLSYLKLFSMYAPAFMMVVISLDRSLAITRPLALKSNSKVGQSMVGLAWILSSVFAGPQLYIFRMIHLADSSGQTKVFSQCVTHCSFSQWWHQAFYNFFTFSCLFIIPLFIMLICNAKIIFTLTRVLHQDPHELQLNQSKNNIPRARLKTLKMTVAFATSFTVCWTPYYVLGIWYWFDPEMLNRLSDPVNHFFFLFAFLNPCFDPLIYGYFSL
Test: IP-One HTRF assay with buserelin (at EC80) stimulation
Assay type: cell-based
Settings: CHO cells stably expressing human GnRH receptor, read-out: Potency in IP-One HTRF assay, given as IC50
Procedure, shortened: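 Ten-point duplicate titrations (20 μM to 1 nM) were fitted by 4-parameter model to normalized 665/620 nm HTRF ratios, 0% = no compound, 100% = no agonist. Assay measured IP1 accumulation in human GnRH-R CHO cells stimulated 1 h at 37° C with EC80 buserelin, then lysed 1 h at 22° C.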

Row | SMILES | IC50 [nM]
1 | CN(C)C(=NS(=O)(=O)c1cccc(NC(=O)c2ccc3c(c2)C2(CCS(=O)(=O)CC2)C(C2CC2)N3S(=O)(=O)c2ccc(F)cc2)c1)N(C)C (single isomer, unassigned) [Example 64.2, N-(3-{[bis(dimethylamino)methylidene]sulfamoyl}phenyl)-2-cyclopropyl-1-[(4-fluorophenyl)sulfonyl]-1,2,2′,3′,5′,6′-hexahydrospiro[indole-3,4′-thiopyran]-5-carboxamide 1′,1′-dioxide] | 66
2 | O=C(NCc1ccccc1C(F)F)c1ccc2c(c1)C1(CCS(=O)(=O)CC1)C(C1CC1)N2S(=O)(=O)c1ccc(F)cc1 (single isomer, unassigned) [Example 68.2, 2-cyclopropyl-N-[2-(difluoromethyl)benzyl]-1-[(4-fluorophenyl)sulfonyl]-1,2,2′,3′,5′,6′-hexahydrospiro[indole-3,4′-thiopyran]-5-carboxamide 1′,1′-dioxide] | 143
3 | N#Cc1ccc(S(=O)(=O)N2c3ccc(C(=O)NCc4ncccc4Cl)cc3C3(CCS(=O)(=O)CC3)C2C2CC2)cc1 (single isomer, unassigned) [Example 70.1, N-[(3-chloropyridin-2-yl)methyl]-1-[(4-cyanophenyl)sulfonyl]-2-cyclopropyl-1,2,2′,3′,5′,6′-hexahydrospiro[indole-3,4′-thiopyran]-5-carboxamide 1′,1′-dioxide] | 33
4 | N#Cc1ccc(S(=O)(=O)N2c3ccc(C(=O)NCc4ncccc4Cl)cc3C3(CCS(=O)(=O)CC3)C2C2CC2)cc1 (single isomer, unassigned) [Example 70.2, N-[(3-chloropyridin-2-yl)methyl]-1-[(4-cyanophenyl)sulfonyl]-2-cyclopropyl-1,2,2′,3′,5′,6′-hexahydrospiro[indole-3,4′-thiopyran]-5-carboxamide 1′,1′-dioxide] | 202
5 | N#Cc1ccc(S(=O)(=O)N2c3ccc(C(=O)Nc4cncc(Cl)c4)cc3C3(CCS(=O)(=O)CC3)C2C2CC2)cc1 (single isomer, unassigned) [Example 71.1, N-(5-chloropyridin-3-yl)-1-[(4-cyanophenyl)sulfonyl]-2-cyclopropyl-1,2,2′,3′,5′,6′-hexahydrospiro[indole-3,4′-thiopyran]-5-carboxamide 1′,1′-dioxide] | 49
6 | N#Cc1ccc(S(=O)(=O)N2c3ccc(C(=O)Nc4cncc(Cl)c4)cc3C3(CCS(=O)(=O)CC3)C2C2CC2)cc1 (single isomer, unassigned) [Example 71.2, N-(5-chloropyridin-3-yl)-1-[(4-cyanophenyl)sulfonyl]-2-cyclopropyl-1,2,2′,3′,5′,6′-hexahydrospiro[indole-3,4′-thiopyran]-5-carboxamide 1′,1′-dioxide] | 1630
7 | N#Cc1ccc(S(=O)(=O)N2c3ccc(C(=O)NCc4ccccc4C(F)(F)F)cc3C3(CCS(=O)(=O)CC3)C2C2CC2)cc1 (single isomer, unassigned) [Example 72.1, 1-[(4-cyanophenyl)sulfonyl]-2-cyclopropyl-N-[2-(trifluoromethyl)benzyl]-1,2,2′,3′,5′,6′-hexahydrospiro[indole-3,4′-thiopyran]-5-carboxamide 1′,1′-dioxide] | 11
8 | N#Cc1ccc(S(=O)(=O)N2c3ccc(C(=O)NCc4ccccc4C(F)(F)F)cc3C3(CCS(=O)(=O)CC3)C2C2CC2)cc1 (single isomer, unassigned) [Example 72.2, 1-[(4-cyanophenyl)sulfonyl]-2-cyclopropyl-N-[2-(trifluoromethyl)benzyl]-1,2,2′,3′,5′,6′-hexahydrospiro[indole-3,4′-thiopyran]-5-carboxamide 1′,1′-dioxide] | 403
9 | N#Cc1cccc(S(=O)(=O)N2c3ccc(C(=O)NCc4ccccc4Cl)cc3C3(CCS(=O)(=O)CC3)C2C2CC2)c1 (single isomer, unassigned) [Example 76.1, N-(2-chlorobenzyl)-1-[(3-cyanophenyl)sulfonyl]-2-cyclopropyl-1,2,2′,3′,5′,6′-hexahydrospiro[indole-3,4′-thiopyran]-5-carboxamide 1′,1′-dioxide] | 21
10 | N#Cc1cccc(S(=O)(=O)N2c3ccc(C(=O)NCc4ccccc4Cl)cc3C3(CCS(=O)(=O)CC3)C2C2CC2)c1 (single isomer, unassigned) [Example 76.2, N-(2-chlorobenzyl)-1-[(3-cyanophenyl)sulfonyl]-2-cyclopropyl-1,2,2′,3′,5′,6′-hexahydrospiro[indole-3,4′-thiopyran]-5-carboxamide 1′,1′-dioxide] | 689
11 | N#Cc1cccc(S(=O)(=O)N2c3ccc(C(=O)Nc4cncc(Cl)c4)cc3C3(CCS(=O)(=O)CC3)C2C2CC2)c1 (single isomer, unassigned) [Example 77.1, N-(5-chloropyridin-3-yl)-1-[(3-cyanophenyl)sulfonyl]-2-cyclopropyl-1,2,2′,3′,5′,6′-hexahydrospiro[indole-3,4′-thiopyran]-5-carboxamide 1′,1′-dioxide] | 54
12 | N#Cc1cccc(S(=O)(=O)N2c3ccc(C(=O)Nc4cncc(Cl)c4)cc3C3(CCS(=O)(=O)CC3)C2C2CC2)c1 (single isomer, unassigned) [Example 77.2, N-(5-chloropyridin-3-yl)-1-[(3-cyanophenyl)sulfonyl]-2-cyclopropyl-1,2,2′,3′,5′,6′-hexahydrospiro[indole-3,4′-thiopyran]-5-carboxamide 1′,1′-dioxide] | 963
13 | N#Cc1cccc(S(=O)(=O)N2c3ccc(C(=O)NCc4ncccc4C(F)(F)F)cc3C3(CCS(=O)(=O)CC3)C2C2CC2)c1 (single isomer, unassigned) [Example 79.1, 1-[(3-cyanophenyl)sulfonyl]-2-cyclopropyl-N-{[3-(trifluoromethyl)pyridin-2-yl]methyl}-1,2,2′,3′,5′,6′-hexahydrospiro[indole-3,4′-thiopyran]-5-carboxamide 1′,1′-dioxide] | 54
14 | N#Cc1cccc(S(=O)(=O)N2c3ccc(C(=O)NCc4ncccc4C(F)(F)F)cc3C3(CCS(=O)(=O)CC3)C2C2CC2)c1 (single isomer, unassigned) [Example 79.2, 1-[(3-cyanophenyl)sulfonyl]-2-cyclopropyl-N-{[3-(trifluoromethyl)pyridin-2-yl]methyl}-1,2,2′,3′,5′,6′-hexahydrospiro[indole-3,4′-thiopyran]-5-carboxamide 1′,1′-dioxide] | 1020
15 | N#Cc1cccc(S(=O)(=O)N2c3ccc(C(=O)Nc4ccon4)cc3C3(CCS(=O)(=O)CC3)C2C2CC2)c1 (single isomer, unassigned) [Example 80.1, 1-[(3-cyanophenyl)sulfonyl]-2-cyclopropyl-N-(1,2-oxazol-3-yl)-1,2,2′,3′,5′,6′-hexahydrospiro[indole-3,4′-thiopyran]-5-carboxamide 1′,1′-dioxide] | 315
16 | N#Cc1cccc(S(=O)(=O)N2c3ccc(C(=O)Nc4ccon4)cc3C3(CCS(=O)(=O)CC3)C2C2CC2)c1 (single isomer, unassigned) [Example 80.2, 1-[(3-cyanophenyl)sulfonyl]-2-cyclopropyl-N-(1,2-oxazol-3-yl)-1,2,2′,3′,5′,6′-hexahydrospiro[indole-3,4′-thiopyran]-5-carboxamide 1′,1′-dioxide] | > 20000
17 | COC(=O)c1cccc(NC(=O)c2ccc3c(c2)C2(CCS(=O)(=O)CC2)C(C2CC2)N3S(=O)(=O)c2cccc(OC(F)F)c2)c1 (single isomer, unassigned) [Example 89.1, methyl 3-{[(2-cyclopropyl-1-{[3-(difluoromethoxy)phenyl]sulfonyl}-1′,1′-dioxido-1,2,2′,3′,5′,6′-hexahydrospiro[indole-3,4′-thiopyran]-5-yl)carbonyl]amino}benzoate] | 63
18 | COC(=O)c1cccc(NC(=O)c2ccc3c(c2)C2(CCS(=O)(=O)CC2)C(C2CC2)N3S(=O)(=O)c2cccc(OC(F)F)c2)c1 (single isomer, unassigned) [Example 89.2, methyl 3-{[(2-cyclopropyl-1-{[3-(difluoromethoxy)phenyl]sulfonyl}-1′,1′-dioxido-1,2,2′,3′,5′,6′-hexahydrospiro[indole-3,4′-thiopyran]-5-yl)carbonyl]amino}benzoate] | > 20000
19 | O=C(O)c1cccc(NC(=O)c2ccc3c(c2)C2(CCS(=O)(=O)CC2)C(C2CC2)N3S(=O)(=O)c2cccc(OC(F)F)c2)c1 (single isomer, unassigned) [Example 90.1, 3-{[(2-cyclopropyl-1-{[3-(difluoromethoxy)phenyl]sulfonyl}-1′,1′-dioxido-1,2,2′,3′,5′,6′-hexahydrospiro[indole-3,4′-thiopyran]-5-yl)carbonyl]amino}benzoic acid] | 41
20 | O=C(O)c1cccc(NC(=O)c2ccc3c(c2)C2(CCS(=O)(=O)CC2)C(C2CC2)N3S(=O)(=O)c2cccc(OC(F)F)c2)c1 (single isomer, unassigned) [Example 90.2, 3-{[(2-cyclopropyl-1-{[3-(difluoromethoxy)phenyl]sulfonyl}-1′,1′-dioxido-1,2,2′,3′,5′,6′-hexahydrospiro[indole-3,4′-thiopyran]-5-yl)carbonyl]amino}benzoic acid] | 2860
21 | CC1N(S(=O)(=O)c2ccc(F)cc2)c2ccc(C(=O)NCc3ccccc3Cl)cc2C12CCOCC2 (stereo not drawn) [Example 2, N-(2-chlorobenzyl)-1-[(4-fluorophenyl)sulfonyl]-2-methyl-1,2,2′,3′,5′,6′-hexahydrospiro[indole-3,4′-pyran]-5-carboxamide] | 189

Source: patent US20140357655A1, “SPIROINDOLINE DERIVATIVES AS GONADOTROPIN- RELEASING HORMONE RECEPTOR ANTAGONISTS” (Bayer Intellectual Property GmbH, priority 2012, published 2014)
